Measurements as given in ChEMBL document CHEMBL1145498, “A systematic interaction map of validated kinase inhibitors with Ser/Thr kinases” (Proc Natl Acad Sci U S A, 2007).

Assays:
[1] = molecular target: Cyclin-dependent kinase 16 (Homo sapiens) (UniProt Q00536)
[2] = molecular target: Casein kinase I isoform gamma-1 (Homo sapiens) (UniProt Q9HCP0)
[3] = molecular target: T1, Serine/threonine-protein kinase PLK4 (Homo sapiens) (UniProt O00444)
T1 sequence (whole entry): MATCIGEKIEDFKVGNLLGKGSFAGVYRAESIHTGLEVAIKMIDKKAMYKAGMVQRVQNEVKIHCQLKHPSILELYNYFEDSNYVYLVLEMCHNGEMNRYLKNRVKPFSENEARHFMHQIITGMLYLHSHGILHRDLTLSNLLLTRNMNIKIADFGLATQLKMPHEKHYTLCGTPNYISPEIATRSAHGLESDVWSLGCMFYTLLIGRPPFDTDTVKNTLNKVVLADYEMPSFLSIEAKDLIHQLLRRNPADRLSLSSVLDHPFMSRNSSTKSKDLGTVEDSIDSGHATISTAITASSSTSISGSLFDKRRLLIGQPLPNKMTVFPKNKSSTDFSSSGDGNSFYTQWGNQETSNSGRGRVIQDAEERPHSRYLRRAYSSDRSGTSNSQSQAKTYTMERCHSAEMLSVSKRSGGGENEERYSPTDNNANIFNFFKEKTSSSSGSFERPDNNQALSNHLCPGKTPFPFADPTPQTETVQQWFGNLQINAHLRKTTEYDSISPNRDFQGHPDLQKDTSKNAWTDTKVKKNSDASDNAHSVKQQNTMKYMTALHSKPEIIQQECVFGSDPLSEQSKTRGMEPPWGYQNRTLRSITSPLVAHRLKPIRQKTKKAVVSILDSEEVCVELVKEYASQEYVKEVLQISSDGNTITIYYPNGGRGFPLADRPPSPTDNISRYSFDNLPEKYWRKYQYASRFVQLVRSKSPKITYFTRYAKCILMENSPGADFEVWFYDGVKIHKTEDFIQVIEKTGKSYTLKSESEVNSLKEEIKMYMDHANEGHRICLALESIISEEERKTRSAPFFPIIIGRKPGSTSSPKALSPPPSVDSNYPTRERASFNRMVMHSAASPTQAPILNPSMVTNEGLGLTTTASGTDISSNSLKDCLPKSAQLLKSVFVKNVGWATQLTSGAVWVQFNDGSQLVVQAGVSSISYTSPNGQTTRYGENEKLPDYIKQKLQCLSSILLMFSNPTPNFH

[4] = molecular target: Serine/threonine-protein kinase VRK2 (Homo sapiens) (UniProt Q86Y07)
[5] = molecular target: Dual specificity protein kinase CLK2 (Homo sapiens) (UniProt P49760)
[6] = molecular target: Serine/threonine-protein kinase 16 (Homo sapiens) (UniProt O75716)
[7] = molecular target: TRAF2 and NCK-interacting protein kinase (Homo sapiens) (UniProt Q9UKE5)
Sequence of TRAF2 and NCK-interacting protein kinase (Homo sapiens) (Q9UKE5 whole entry, looked up): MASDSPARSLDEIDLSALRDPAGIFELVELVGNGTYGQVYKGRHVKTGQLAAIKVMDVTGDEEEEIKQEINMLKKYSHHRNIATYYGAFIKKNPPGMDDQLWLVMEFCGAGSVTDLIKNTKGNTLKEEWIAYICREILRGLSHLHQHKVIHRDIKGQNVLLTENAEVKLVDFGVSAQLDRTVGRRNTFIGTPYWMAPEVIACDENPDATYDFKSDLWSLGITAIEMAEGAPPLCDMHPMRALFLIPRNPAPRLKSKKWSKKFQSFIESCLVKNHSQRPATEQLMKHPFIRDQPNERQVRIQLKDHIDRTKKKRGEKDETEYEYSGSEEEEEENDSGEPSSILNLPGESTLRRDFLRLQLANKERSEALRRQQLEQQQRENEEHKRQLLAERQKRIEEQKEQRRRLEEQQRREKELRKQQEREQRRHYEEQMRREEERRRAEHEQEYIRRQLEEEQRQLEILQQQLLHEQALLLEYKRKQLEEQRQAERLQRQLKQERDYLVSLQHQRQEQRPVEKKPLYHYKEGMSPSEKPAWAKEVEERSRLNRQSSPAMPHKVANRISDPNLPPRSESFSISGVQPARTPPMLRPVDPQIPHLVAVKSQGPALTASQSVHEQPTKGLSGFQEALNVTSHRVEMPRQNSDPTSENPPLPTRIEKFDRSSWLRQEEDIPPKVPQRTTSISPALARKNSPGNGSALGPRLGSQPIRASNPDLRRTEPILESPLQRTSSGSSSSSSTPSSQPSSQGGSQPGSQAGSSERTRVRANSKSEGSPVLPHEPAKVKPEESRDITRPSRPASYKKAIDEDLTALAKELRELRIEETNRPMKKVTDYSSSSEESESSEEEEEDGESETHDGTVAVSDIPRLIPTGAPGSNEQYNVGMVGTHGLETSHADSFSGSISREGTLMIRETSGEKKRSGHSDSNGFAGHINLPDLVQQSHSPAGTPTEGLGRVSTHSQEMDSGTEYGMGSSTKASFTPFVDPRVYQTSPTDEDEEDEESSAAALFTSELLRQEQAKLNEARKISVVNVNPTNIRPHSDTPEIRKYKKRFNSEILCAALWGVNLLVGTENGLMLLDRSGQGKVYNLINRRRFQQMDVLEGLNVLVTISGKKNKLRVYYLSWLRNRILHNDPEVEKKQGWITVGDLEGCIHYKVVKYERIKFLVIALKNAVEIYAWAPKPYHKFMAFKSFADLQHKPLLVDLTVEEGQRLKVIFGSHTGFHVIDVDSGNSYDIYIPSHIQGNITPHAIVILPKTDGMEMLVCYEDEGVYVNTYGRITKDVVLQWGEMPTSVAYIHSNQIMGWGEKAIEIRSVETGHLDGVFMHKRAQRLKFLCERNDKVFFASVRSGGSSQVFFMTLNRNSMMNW

[8] = molecular target: Serine/threonine-protein kinase pim-3 (Homo sapiens) (UniProt Q86V86)
[9] = molecular target: Mitogen-activated protein kinase 11 (Homo sapiens, UniProt Q15759)
Sequence of Mitogen-activated protein kinase 11 (Q15759 whole entry): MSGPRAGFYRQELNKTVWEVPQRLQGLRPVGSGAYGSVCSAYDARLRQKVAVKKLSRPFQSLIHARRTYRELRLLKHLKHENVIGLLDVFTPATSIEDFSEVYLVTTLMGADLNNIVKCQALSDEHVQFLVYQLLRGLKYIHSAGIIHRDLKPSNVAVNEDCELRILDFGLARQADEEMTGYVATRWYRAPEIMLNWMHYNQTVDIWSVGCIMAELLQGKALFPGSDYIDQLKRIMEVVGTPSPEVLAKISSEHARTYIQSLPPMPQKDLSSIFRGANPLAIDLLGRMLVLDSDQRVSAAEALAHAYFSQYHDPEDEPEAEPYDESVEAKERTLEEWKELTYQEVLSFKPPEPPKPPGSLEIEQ

[10] = molecular target: Calcium/calmodulin-dependent protein kinase type II subunit delta (Homo sapiens) (UniProt Q13557)
Sequence of Calcium/calmodulin-dependent protein kinase type II subunit delta (Homo sapiens) (Q13557 whole entry): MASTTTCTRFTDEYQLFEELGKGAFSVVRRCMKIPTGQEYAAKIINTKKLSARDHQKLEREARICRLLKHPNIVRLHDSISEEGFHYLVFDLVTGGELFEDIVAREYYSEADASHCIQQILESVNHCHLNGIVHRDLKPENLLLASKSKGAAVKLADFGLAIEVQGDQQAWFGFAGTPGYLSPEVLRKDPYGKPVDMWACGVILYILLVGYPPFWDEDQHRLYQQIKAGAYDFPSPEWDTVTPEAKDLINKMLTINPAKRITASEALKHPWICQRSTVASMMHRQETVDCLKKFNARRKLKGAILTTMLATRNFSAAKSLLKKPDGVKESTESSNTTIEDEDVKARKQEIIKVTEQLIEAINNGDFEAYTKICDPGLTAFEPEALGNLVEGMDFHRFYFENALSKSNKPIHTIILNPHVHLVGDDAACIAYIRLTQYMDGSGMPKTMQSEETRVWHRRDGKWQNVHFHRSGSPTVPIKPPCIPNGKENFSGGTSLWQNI

[11] = molecular target: Death-associated protein kinase 3 (Homo sapiens) (UniProt O43293)
Sequence of Death-associated protein kinase 3 (Homo sapiens) (O43293 whole entry, looked up): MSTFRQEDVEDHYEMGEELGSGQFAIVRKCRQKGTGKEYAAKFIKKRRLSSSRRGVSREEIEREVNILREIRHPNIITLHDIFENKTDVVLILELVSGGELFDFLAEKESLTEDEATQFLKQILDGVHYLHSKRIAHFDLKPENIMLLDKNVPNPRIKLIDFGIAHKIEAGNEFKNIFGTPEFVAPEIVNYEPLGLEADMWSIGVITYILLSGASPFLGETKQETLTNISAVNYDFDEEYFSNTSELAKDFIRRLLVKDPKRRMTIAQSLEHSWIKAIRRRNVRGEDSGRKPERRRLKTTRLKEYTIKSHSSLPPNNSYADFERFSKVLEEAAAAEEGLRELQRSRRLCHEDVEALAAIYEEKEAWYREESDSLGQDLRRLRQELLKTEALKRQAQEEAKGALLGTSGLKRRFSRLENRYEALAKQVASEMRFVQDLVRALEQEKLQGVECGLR

[12] = molecular target: Cyclin-dependent kinase 2 (Homo sapiens, UniProt P24941)
[13] = molecular target: T2, Serine/threonine-protein kinase VRK1 (Homo sapiens) (UniProt Q99986)
T2 sequence (whole entry): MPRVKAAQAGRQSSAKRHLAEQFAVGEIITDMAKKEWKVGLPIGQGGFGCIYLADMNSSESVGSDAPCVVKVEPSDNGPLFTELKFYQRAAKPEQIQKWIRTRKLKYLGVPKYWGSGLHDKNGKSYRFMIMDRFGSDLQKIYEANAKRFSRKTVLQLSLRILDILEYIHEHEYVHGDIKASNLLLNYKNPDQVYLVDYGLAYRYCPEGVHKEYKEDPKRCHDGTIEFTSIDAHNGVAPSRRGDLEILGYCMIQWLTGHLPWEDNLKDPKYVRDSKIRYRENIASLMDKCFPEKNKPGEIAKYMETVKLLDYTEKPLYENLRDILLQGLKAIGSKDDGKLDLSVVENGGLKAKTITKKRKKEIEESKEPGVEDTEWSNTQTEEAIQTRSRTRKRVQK

[14] = molecular target: Cyclin-dependent kinase 6 (Homo sapiens) (UniProt Q00534)
Sequence of Cyclin-dependent kinase 6 (Homo sapiens) (Q00534 whole entry): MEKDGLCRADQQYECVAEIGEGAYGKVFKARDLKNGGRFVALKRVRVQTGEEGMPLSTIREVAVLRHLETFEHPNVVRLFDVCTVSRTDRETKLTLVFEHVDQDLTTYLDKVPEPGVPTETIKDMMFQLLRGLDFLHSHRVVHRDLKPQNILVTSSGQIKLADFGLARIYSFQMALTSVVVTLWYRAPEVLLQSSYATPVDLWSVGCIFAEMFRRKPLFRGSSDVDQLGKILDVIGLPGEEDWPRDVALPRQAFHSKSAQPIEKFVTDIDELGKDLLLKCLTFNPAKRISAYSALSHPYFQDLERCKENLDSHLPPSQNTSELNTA

[15] = molecular target: Mitogen-activated protein kinase 6 (Homo sapiens) (UniProt Q16659)
Sequence of Mitogen-activated protein kinase 6 (Homo sapiens) (Q16659 whole entry): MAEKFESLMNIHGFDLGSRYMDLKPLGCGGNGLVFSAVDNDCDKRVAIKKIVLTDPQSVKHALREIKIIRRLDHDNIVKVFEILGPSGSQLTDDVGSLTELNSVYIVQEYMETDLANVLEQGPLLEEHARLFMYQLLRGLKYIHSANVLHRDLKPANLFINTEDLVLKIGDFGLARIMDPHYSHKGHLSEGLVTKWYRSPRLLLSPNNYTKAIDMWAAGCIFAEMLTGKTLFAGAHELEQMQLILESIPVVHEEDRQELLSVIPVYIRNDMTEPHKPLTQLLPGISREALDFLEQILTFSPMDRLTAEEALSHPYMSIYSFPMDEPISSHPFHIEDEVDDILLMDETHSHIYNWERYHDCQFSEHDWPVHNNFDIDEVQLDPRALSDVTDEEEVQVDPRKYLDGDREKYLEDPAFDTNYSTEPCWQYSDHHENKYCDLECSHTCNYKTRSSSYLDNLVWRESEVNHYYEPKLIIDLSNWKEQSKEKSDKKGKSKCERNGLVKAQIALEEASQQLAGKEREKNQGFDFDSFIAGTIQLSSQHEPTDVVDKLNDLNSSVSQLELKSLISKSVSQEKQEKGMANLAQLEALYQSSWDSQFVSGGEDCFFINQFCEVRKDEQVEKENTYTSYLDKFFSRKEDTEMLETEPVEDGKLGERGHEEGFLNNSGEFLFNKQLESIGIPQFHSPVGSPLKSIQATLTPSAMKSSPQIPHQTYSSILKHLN

[16] = molecular target: Calcium/calmodulin-dependent protein kinase type 1D (Homo sapiens) (UniProt Q8IU85)

Sequence of Cyclin-dependent kinase 16 (Homo sapiens) (Q00536 whole entry, canonical isoform): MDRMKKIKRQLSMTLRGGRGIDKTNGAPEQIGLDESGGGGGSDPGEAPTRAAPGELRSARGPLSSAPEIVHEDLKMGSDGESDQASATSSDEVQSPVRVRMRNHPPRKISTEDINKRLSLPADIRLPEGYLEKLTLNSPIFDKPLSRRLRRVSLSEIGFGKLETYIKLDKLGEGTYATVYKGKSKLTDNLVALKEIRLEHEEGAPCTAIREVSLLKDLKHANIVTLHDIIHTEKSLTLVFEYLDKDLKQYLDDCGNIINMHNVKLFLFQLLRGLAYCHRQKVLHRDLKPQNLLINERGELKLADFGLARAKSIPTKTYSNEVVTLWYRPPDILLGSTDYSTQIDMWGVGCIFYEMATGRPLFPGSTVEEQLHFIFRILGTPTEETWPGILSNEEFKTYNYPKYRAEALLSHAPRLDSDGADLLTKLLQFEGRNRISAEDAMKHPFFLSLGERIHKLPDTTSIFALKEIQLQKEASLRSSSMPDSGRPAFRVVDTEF
Sequence of Casein kinase I isoform gamma-1 (Homo sapiens) (Q9HCP0 whole entry, looked up, canonical isoform): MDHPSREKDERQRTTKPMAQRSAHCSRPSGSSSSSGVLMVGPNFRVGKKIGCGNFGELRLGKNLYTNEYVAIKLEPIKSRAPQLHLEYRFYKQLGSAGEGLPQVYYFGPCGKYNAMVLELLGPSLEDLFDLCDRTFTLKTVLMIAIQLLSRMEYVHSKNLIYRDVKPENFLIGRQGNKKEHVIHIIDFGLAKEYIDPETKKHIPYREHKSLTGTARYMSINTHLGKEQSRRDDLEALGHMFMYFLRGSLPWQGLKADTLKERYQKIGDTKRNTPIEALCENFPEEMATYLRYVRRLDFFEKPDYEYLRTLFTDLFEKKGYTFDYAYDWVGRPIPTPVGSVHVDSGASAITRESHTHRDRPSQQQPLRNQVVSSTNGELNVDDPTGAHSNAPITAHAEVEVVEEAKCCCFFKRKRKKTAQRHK

Structure (SMILES) | ΔTm [1] [°C] | ΔTm [2] [°C] | ΔTm [3] [°C] | ΔTm [4] [°C] | ΔTm [5] [°C] | ΔTm [6] [°C] | ΔTm [7] [°C] | ΔTm [8] [°C] | ΔTm [9] [°C] | ΔTm [10] [°C] | ΔTm [11] [°C] | ΔTm [12] [°C] | ΔTm [13] [°C] | ΔTm [14] [°C] | ΔTm [15] [°C] | ΔTm [16] [°C]
NC(=O)c1ccc(-c2nc(-c3ccc4c(c3)OCCO4)c(-c3ccccn3)[nH]2)cc1 | -0.4 | 0.4 | 0.1 | 0.5 | -0.3 | 0.1 | -0.6 | 0.4 | -0.1 | 0.3 | -0.3 | 0.6 | 0.7 | 0.4 | -0.1 | 0
C#Cc1cccc(Nc2ncnc3cc(OCCOC)c(OCCOC)cc23)c1 | -0.4 | 0.5 | -0.1 | 0.5 | 0.3 | 0.7 | -0.2 | -0.1 | 0 | -0.3 | 1.2 | -0.6 | 0.3 | 0.5 | 0 | 0.1
COc1cc2ncnc(Nc3ccc(F)c(Cl)c3)c2cc1OCCCN1CCOCC1 | -0.3 | 0.5 | 0 | 0.3 | 0 | 3.1 | -1 | -0.2 | 0.8 | 0.1 | 3.2 | 0 | 0.5 | 0.6 | 0.8 | 0.4
O=c1ccc2ccc(O)c(O)c2o1 [DAPHNETIN] | -0.6 | 0 | 0.3 | -0.1 | 0.1 | 0.1 | 0.3 | 0.8 | -0.7 | -0.1 | -0.6 | 0.7 | 0 | -0.3 | 0.2 | 0.1
Cn1cc(C2=C(c3cn(CCCN)c4ccccc34)C(=O)NC2=O)c2ccccc21 | 4.7 | 0.5 | 1.8 | 0.6 | 5.6 | 4.3 | 0.8 | 6.7 | 0.5 | -0.5 | 2.5 | 3 | 0.9 | 1.3 | 0.3 | 0.3
Cn1cc(C2=C(c3cn(CCCSC(=N)N)c4ccccc34)C(=O)NC2=O)c2ccccc21 | 5.3 | 0.6 | 2.6 | 0.9 | 5.1 | 3.9 | 3.8 | 7.7 | 2 | 1.1 | 1.5 | 8.4 | 1.6 | 3.2 | 0 | 2
Oc1cccc(-c2nc(N3CCOCC3)c3oc4ncccc4c3n2)c1 | -0.1 | 0.4 | 0.4 | 0.4 | 0 | 0.3 | 0.3 | 0.6 | 1 | -0.6 | 0 | 0.4 | -0.1 | -0.4 | 0.5 | 0.4
COc1cc2ncnc(Nc3cccc(Br)c3)c2cc1OC | -0.9 | 0.8 | 3.4 | 0.4 | 0.7 | 0.4 | 2 | 1.6 | 1.8 | -0.5 | 1.8 | 0.1 | 0.7 | 0.2 | -0.1 | 0.3
